Laboratory results from ChEMBL document CHEMBL1649268, “Comparative in vitro activity profile of oritavancin against recent gram-positive clinical isolates” (2009).
Converted amounts (≈) assume the structure as drawn.

Assays:
Format in all cases: functional
[1] = test system: Streptococcus pneumoniae; assay: Antimicrobial activity against Streptococcus pneumoniae clinical isolates by broth microdilution method
[2] = test system: Streptococcus pneumoniae; assay: Antimicrobial activity against penicillin-intermediate Streptococcus pneumoniae clinical isolates assessed as resistant isolates by broth microdilution method
[3] = test system: Streptococcus pneumoniae; assay: Antimicrobial activity against penicillin-intermediate Streptococcus pneumoniae clinical isolates by broth microdilution method
[4] = test system: Streptococcus pneumoniae; assay: Antimicrobial activity against Streptococcus pneumoniae clinical isolates assessed as resistant isolates by broth microdilution method
[5] = test system: Streptococcus pneumoniae; assay: Antimicrobial activity against penicillin-susceptible Streptococcus pneumoniae clinical isolates by broth microdilution method
[6] = test system: Streptococcus pneumoniae; assay: Antimicrobial activity against Streptococcus pneumoniae clinical isolates assessed as percent susceptible isolates by broth microdilution method
[7] = test system: Streptococcus pneumoniae; assay: Antimicrobial activity against penicillin-susceptible Streptococcus pneumoniae clinical isolates assessed as resistant isolates by broth microdilution method
[8] = test system: Streptococcus pneumoniae; assay: Antimicrobial activity against penicillin-resistant Streptococcus pneumoniae clinical isolates assessed as resistant isolates by broth microdilution method
[9] = test system: Streptococcus pneumoniae; assay: Antimicrobial activity against penicillin-intermediate Streptococcus pneumoniae clinical isolates assessed as percent susceptible isolates by broth microdilution method
[10] = test system: Streptococcus pneumoniae; assay: Antimicrobial activity against penicillin-susceptible Streptococcus pneumoniae clinical isolates assessed as percent susceptible isolates by broth microdilution method
[11] = test system: Streptococcus pneumoniae; assay: Antimicrobial activity against penicillin-resistant Streptococcus pneumoniae clinical isolates by broth microdilution method
[12] = test system: Streptococcus pneumoniae; assay: Antimicrobial activity against penicillin-resistant Streptococcus pneumoniae clinical isolates assessed as percent susceptible isolates by broth microdilution method
[13] = test system: Staphylococcus aureus; assay: Antimicrobial activity against Staphylococcus aureus clinical isolates assessed as percent susceptible isolates by broth microdilution method
[14] = test system: Staphylococcus epidermidis; assay: Antimicrobial activity against oxacillin-susceptible Staphylococcus epidermidis clinical isolates assessed as percent susceptible isolates by broth microdilution method
[15] = test system: Staphylococcus haemolyticus; assay: Antimicrobial activity against oxacillin-susceptible Staphylococcus haemolyticus clinical isolates assessed as percent susceptible isolates by broth microdilution method
[16] = test system: Enterococcus faecalis; assay: Antimicrobial activity against Enterococcus faecalis expressing VanB gene clinical isolates by broth microdilution method
[17] = test system: Enterococcus faecium; assay: Antimicrobial activity against Enterococcus faecium clinical isolates by broth microdilution method
[18] = test system: Enterococcus faecium; assay: Antimicrobial activity against Enterococcus faecium clinical isolates assessed as resistant isolates by broth microdilution method
[19] = test system: Staphylococcus haemolyticus; assay: Antimicrobial activity against oxacillin-susceptible Staphylococcus haemolyticus clinical isolates by broth microdilution method
[20] = test system: Enterococcus faecium; assay: Antimicrobial activity against Enterococcus faecium expressing VanA gene clinical isolates assessed as percent susceptible isolates by broth microdilution method
[21] = test system: Staphylococcus epidermidis; assay: Antimicrobial activity against Staphylococcus epidermidis clinical isolates by broth microdilution method
[22] = test system: Enterococcus faecium; assay: Antimicrobial activity against Enterococcus faecium expressing VanA gene clinical isolates assessed as resistant isolates by broth microdilution method
[23] = test system: Staphylococcus aureus; assay: Antimicrobial activity against oxacillin-susceptible Staphylococcus aureus clinical isolates assessed as percent susceptible isolates by broth microdilution method
[24] = test system: Enterococcus faecium; assay: Antimicrobial activity against vancomycin-nonsusceptible Enterococcus faecium clinical isolates assessed as resistant isolates by broth microdilution method
[25] = test system: Enterococcus faecalis; assay: Antimicrobial activity against vancomycin-susceptible Enterococcus faecalis clinical isolates assessed as resistant isolates by broth microdilution method
[26] = test system: Enterococcus faecalis; assay: Antimicrobial activity against Enterococcus faecalis clinical isolates by broth microdilution method
[27] = test system: Enterococcus faecalis; assay: Antimicrobial activity against Enterococcus faecalis clinical isolates assessed as percent susceptible isolates by broth microdilution method
[28] = test system: Enterococcus faecium; assay: Antimicrobial activity against Enterococcus faecium expressing VanB gene clinical isolates assessed as percent susceptible isolates by broth microdilution method
[29] = test system: Enterococcus faecium; assay: Antimicrobial activity against Enterococcus faecium clinical isolates assessed as percent susceptible isolates by broth microdilution method
[30] = test system: Enterococcus faecium; assay: Antimicrobial activity against Enterococcus faecium expressing VanB gene clinical isolates by broth microdilution method
[31] = test system: Enterococcus faecium; assay: Antimicrobial activity against Enterococcus faecium expressing VanB gene clinical isolates assessed as resistant isolates by broth microdilution method
[32] = test system: Enterococcus faecalis; assay: Antimicrobial activity against Enterococcus faecalis clinical isolates assessed as resistant isolates by broth microdilution method
[33] = test system: Staphylococcus haemolyticus; assay: Antimicrobial activity against Staphylococcus haemolyticus clinical isolates by broth microdilution method
[34] = test system: Staphylococcus epidermidis; assay: Antimicrobial activity against Staphylococcus epidermidis clinical isolates assessed as percent susceptible isolates by broth microdilution method
[35] = test system: Enterococcus faecalis; assay: Antimicrobial activity against vancomycin-susceptible Enterococcus faecalis clinical isolates assessed as percent susceptible isolates by broth microdilution method
[36] = test system: Enterococcus faecalis; assay: Antimicrobial activity against Enterococcus faecalis expressing VanB gene clinical isolates assessed as percent susceptible isolates by broth microdilution method
[37] = test system: Enterococcus faecalis; assay: Antimicrobial activity against vancomycin-susceptible Enterococcus faecalis clinical isolates by broth microdilution method
[38] = test system: Staphylococcus haemolyticus; assay: Antimicrobial activity against oxacillin-resistant Staphylococcus haemolyticus clinical isolates assessed as percent susceptible isolates by broth microdilution method
[39] = test system: Enterococcus faecium; assay: Antimicrobial activity against vancomycin-nonsusceptible Enterococcus faecium clinical isolates assessed as percent susceptible isolates by broth microdilution method
[40] = test system: Staphylococcus haemolyticus; assay: Antimicrobial activity against oxacillin-resistant Staphylococcus haemolyticus clinical isolates by broth microdilution method
[41] = test system: Enterococcus faecalis; assay: Antimicrobial activity against Enterococcus faecalis expressing VanA gene clinical isolates by broth microdilution method
[42] = test system: Staphylococcus aureus; assay: Antimicrobial activity against Staphylococcus aureus clinical isolates by broth microdilution method
[43] = test system: Enterococcus faecalis; assay: Antimicrobial activity against Enterococcus faecalis expressing VanB gene clinical isolates assessed as resistant isolates by broth microdilution method
[44] = test system: Enterococcus faecium; assay: Antimicrobial activity against vancomycin-susceptible Enterococcus faecium clinical isolates assessed as resistant isolates by broth microdilution method
[45] = test system: Enterococcus faecalis; assay: Antimicrobial activity against vancomycin-nonsusceptible Enterococcus faecalis clinical isolates by broth microdilution method
[46] = test system: Enterococcus faecalis; assay: Antimicrobial activity against vancomycin-nonsusceptible Enterococcus faecalis clinical isolates assessed as percent susceptible isolates by broth microdilution method
[47] = test system: Enterococcus faecium; assay: Antimicrobial activity against vancomycin-susceptible Enterococcus faecium clinical isolates by broth microdilution method
[48] = test system: Enterococcus faecium; assay: Antimicrobial activity against vancomycin-nonsusceptible Enterococcus faecium clinical isolates by broth microdilution method
[49] = test system: Enterococcus faecalis; assay: Antimicrobial activity against vancomycin-nonsusceptible Enterococcus faecalis clinical isolates assessed as resistant isolates by broth microdilution method
[50] = test system: Staphylococcus haemolyticus; assay: Antimicrobial activity against Staphylococcus haemolyticus clinical isolates assessed as percent susceptible isolates by broth microdilution method
[51] = test system: Staphylococcus epidermidis; assay: Antimicrobial activity against oxacillin-susceptible Staphylococcus epidermidis clinical isolates by broth microdilution method
[52] = test system: Enterococcus faecium; assay: Antimicrobial activity against vancomycin-susceptible Enterococcus faecium clinical isolates assessed as percent susceptible isolates by broth microdilution method
[53] = test system: Enterococcus faecalis; assay: Antimicrobial activity against Enterococcus faecalis expressing VanA gene clinical isolates assessed as percent susceptible isolates by broth microdilution method
[54] = test system: Staphylococcus aureus; assay: Antimicrobial activity against oxacillin-resistant Staphylococcus aureus clinical isolates by broth microdilution method
[55] = test system: Staphylococcus epidermidis; assay: Antimicrobial activity against oxacillin-resistant Staphylococcus epidermidis clinical isolates by broth microdilution method
[56] = test system: Staphylococcus aureus; assay: Antimicrobial activity against oxacillin-susceptible Staphylococcus aureus clinical isolates by broth microdilution method
[57] = test system: Enterococcus faecium; assay: Antimicrobial activity against Enterococcus faecium expressing VanA gene clinical isolates by broth microdilution method
[58] = test system: Enterococcus faecalis; assay: Antimicrobial activity against Enterococcus faecalis expressing VanA gene clinical isolates assessed as resistant isolates by broth microdilution method

CC[C@H]1OC(=O)[C@H](C)C(=O)[C@H](C)[C@@H](O[C@@H]2O[C@H](C)C[C@H](N(C)C)[C@H]2O)[C@](C)(OC)C[C@@H](C)C(=O)[C@H](C)[C@H]2N(CCCCn3cnc(-c4cccnc4)c3)C(=O)O[C@]12C [TELITHROMYCIN]
MIC90 [1]: 0.25 µg/mL (≈ 0.308 µM) | Percent of isolates resistant [2]: 0% | MIC90 [3]: 0.25 µg/mL (≈ 0.308 µM) | Resistant isolates [4]: 0% | MIC90 [5]: 0.015 µg/mL (≈ 0.0185 µM) | Activity [6]: 100% | Percent of isolates resistant [7]: 0% | Percent of isolates resistant [8]: 0% | Activity [9]: 100% | Activity [10]: 100% | MIC90 [11]: 0.5 µg/mL (≈ 0.616 µM)

CO/N=C(\C(=O)N[C@@H]1C(=O)N2C(C(=O)OC(C)OC(C)=O)=C(COC(N)=O)CS[C@H]12)c1ccco1 (stereo not given in full) [CEFUROXIME AXETIL]
MIC90 [1]: 4 µg/mL (≈ 7.84 µM) | Percent of isolates resistant [2]: 20.4% | MIC90 [3]: 4 µg/mL (≈ 7.84 µM) | Resistant isolates [4]: 18.9% | MIC [5]: ≤ 0.12 µg/mL | MIC90 [5]: ≤ 0.12 µg/mL | Activity [12]: 0% | Activity [6]: 75.9% | Percent of isolates resistant [7]: 0% | Percent of isolates resistant [8]: 99.3% | Activity [9]: 56% | Activity [10]: 100% | MIC90 [11]: > 4 µg/mL

CC(=O)NC[C@H]1CN(c2ccc(N3CCOCC3)c(F)c2)C(=O)O1 [LINEZOLID]
Activity [13]: 100% | Activity [14]: 99.7% | Activity [15]: 100% | MIC90 [16]: 2 µg/mL (≈ 5.93 µM) | MIC90 [17]: 2 µg/mL (≈ 5.93 µM) | Activity [18]: 0.4% | MIC90 [19]: 1 µg/mL (≈ 2.96 µM) | Activity [20]: 99.5% | MIC90 [21]: 1 µg/mL (≈ 2.96 µM) | Activity [22]: 0.5% | Activity [23]: 100% | Activity [24]: 0.6% | Activity [25]: 0.1% | MIC90 [26]: 2 µg/mL (≈ 5.93 µM) | Activity [27]: 99.8% | Activity [28]: 93.1% | Activity [29]: 99.3% | MIC90 [30]: 2 µg/mL (≈ 5.93 µM) | Activity [31]: 3.4% | Activity [32]: 0.2% | MIC90 [33]: 1 µg/mL (≈ 2.96 µM) | Activity [34]: 99.4% | Activity [35]: 99.9% | Activity [36]: 100% | MIC90 [37]: 2 µg/mL (≈ 5.93 µM) | Activity [38]: 99% | Activity [39]: 99.1% | MIC90 [40]: 1 µg/mL (≈ 2.96 µM) | MIC90 [41]: 2 µg/mL (≈ 5.93 µM) | MIC90 [42]: 2 µg/mL (≈ 5.93 µM) | Activity [43]: 0% | Activity [44]: 0% | MIC90 [45]: 2 µg/mL (≈ 5.93 µM) | Activity [46]: 98.9% | MIC90 [47]: 2 µg/mL (≈ 5.93 µM) | MIC90 [48]: 2 µg/mL (≈ 5.93 µM) | Activity [49]: 1.1% | Activity [50]: 99.3% | MIC90 [51]: 1 µg/mL (≈ 2.96 µM) | Activity [52]: 99.4% | Activity [53]: 98.5% | MIC90 [54]: 2 µg/mL (≈ 5.93 µM) | MIC90 [55]: 1 µg/mL (≈ 2.96 µM) | MIC90 [56]: 2 µg/mL (≈ 5.93 µM) | MIC90 [57]: 2 µg/mL (≈ 5.93 µM) | Activity [58]: 1.5%

CN[C@@H]1[C@H](O[C@H]2[C@H](O[C@H]3[C@H](O)[C@@H](O)[C@H](N=C(N)N)[C@@H](O)[C@@H]3N=C(N)N)O[C@@H](C)[C@]2(O)C=O)O[C@@H](CO)[C@H](O)[C@H]1O [STREPTOMYCIN]
MIC [16]: ≥ 1000 µg/mL | MIC90 [16]: > 1000 µg/mL | MIC [17]: ≥ 1000 µg/mL | MIC90 [17]: > 1000 µg/mL | Activity [18]: 55.2% | Activity [20]: 36.1% | Activity [22]: 63.9% | Activity [24]: 63.5% | Activity [25]: 28.7% | MIC [26]: ≥ 1000 µg/mL | MIC90 [26]: > 1000 µg/mL | Activity [27]: 70.1% | Activity [28]: 34.5% | Activity [29]: 44.8% | MIC [30]: ≥ 1000 µg/mL | MIC90 [30]: > 1000 µg/mL | Activity [31]: 65.5% | Activity [32]: 29.9% | Activity [35]: 71.3% | Activity [36]: 41.2% | MIC [37]: ≥ 1000 µg/mL | MIC90 [37]: > 1000 µg/mL | Activity [39]: 36.5% | MIC [41]: ≥ 1000 µg/mL | MIC90 [41]: > 1000 µg/mL | Activity [43]: 58.8% | Activity [44]: 44% | MIC [45]: ≥ 1000 µg/mL | MIC90 [45]: > 1000 µg/mL | Activity [46]: 48.3% | MIC [47]: ≥ 1000 µg/mL | MIC90 [47]: > 1000 µg/mL | MIC [48]: ≥ 1000 µg/mL | MIC90 [48]: > 1000 µg/mL | Activity [49]: 51.7% | Activity [52]: 56% | Activity [53]: 49.2% | MIC [57]: ≥ 1000 µg/mL | MIC90 [57]: > 1000 µg/mL | Activity [58]: 50.8%
